Experimental data: US20150157588A1, “Pharmaceutical Composition Comprising Amino-Phenyl-Acetic Acid Octadec-(Z)-9-enyl Ester and Use Thereof for Treating Tumors” (Yeda Research and Development Co., Ltd., priority 2012, published 2015)

System: anti-CD3-activated T cells
Test: Microarray gene expression, T cells activated by anti-CD3 antibody
Type: cell-based, human
Details: anti-CD3-activated T cells; for Fold change COL6A3: 201438_at; for Fold change CTSL: 202087_s_at; for Fold change IGF2 /// INS-IGF2: 202409_at; for Fold change IGFBP2: 202718_at; for Fold change SERPINA1: 202833_s_at; for Fold change S100A8: 202917_s_at; for Fold change MET: 203510_at; for Fold change MMP9: 203936_s_at; for Fold change LOC645619 /// LOC731007: 204347_at; for Fold change AK3L1: 204348_s_at; for Fold change SLC7A7: 204588_s_at; for Fold change SERPINB2: 204614_at; for Fold change TTK: 204822_at; for Fold change GNG4: 205184_at; for Fold change ADAMDEC1: 206134_at; for Fold change PLA2G7: 206214_at; for Fold change HCK: 208018_s_at
Procedure: CD3 positive T cells were extracted from a healthy donor according to a standard protocol, and seeded in T cell medium including RPMI, 10% fetal calf serum, sodium pyruvate, L-Glutamine, and Penicillin/Streptomycin. Following an overnight incubation with medium, the cells were treated by incubating for 2 hours at 37° C. with amino-phenyl-acetic acid octadec-(Z)-9-enyl ester at a concentration of 10 micrograms/ml in a final volume of 10 ml in T-cell medium with or without 0.05% ethanol. After incubation, half the cells from each treatment were centrifuged and 2 ml of Tri-reagent (Sigma) were added to the pellet. The other half of the cells from each treatment were transferred to anti-CD3 antibody coated 24 well plates for an overnight incubation at 37° C. Coating plates with an anti-CD3 antibody was carried out by incubating with 2 micrograms/ml of OKT3 anti-CD3 antibody overnight at 4° C., washing three times with PBS and blocking with filtered 1% Bovine Serum Albumin for 1 hour. After activation with anti-CD3 antibody, cells were centrifuged and 2 ml of Tri-reagent were added to the pellet.
RNA was extracted from unstimulated cells and from cells activated with anti-CD3 according to standard protocols and used for hybridization with a Human Genome U133A 2.0 (Affymetrix, Catalogue number 900468), according to the manufacturer's instructions. The results of the hybridization were read by a GeneChip scanner 3000 (Affymetrix) and analyzed by QuantArray (GSI lumonics).
The effects of amino-phenyl-acetic acid octadec-(Z)-9-enyl ester in ethanol solution or in an aqueous vehicle (hereinafter termed “in PBS”) on gene expression in unstimulated T cells and T cells activated by anti-CD3 antibody were compared by microarray analysis.

[1] = in ethanol solution vs untreated

SMILES: CCCCCCCC/C=C\CCCCCCCCOC(=O)C(N)c1ccccc1 (stereo not shown) [amino-phenyl-acetic acid octadec-(Z)-9-enyl ester]
- Fold change IL1B (39402_at, in ethanol solution vs untreated): 2.03
- Fold change THBS1 (201109_s_at, in ethanol solution vs untreated): 1.94
- Fold Change EIF5A (201123_s_at, in ethanol solution vs in PBS): −1.97
- Fold change COL6A3 (in ethanol solution vs in PBS): −2.16
- Fold change COL6A3 [1]: −2.06
- Fold change BNIP3 (201848_s_at, in ethanol solution vs in PBS): −3.39
- Fold change BNIP3 (201848_s_at, in ethanol solution vs untreated): −2.99
- Fold change BNIP3 (201849_at, in ethanol solution vs in PBS): −3.34
- Fold change BNIP3 (201849_at, in ethanol solution vs untreated): −3.24
- Fold change CTSL (in ethanol solution vs in PBS): 2.18
- Fold change CTSL [1]: 2.30
- Fold change IGF2 /// INS-IGF2 (in ethanol solution vs in PBS): −2.42
- Fold change IGF2 /// INS-IGF2 [1]: −2.17
- Fold change CYP1B1 (202436_s_at, in ethanol solution vs untreated): 2.02
- Fold change IGFBP2 (in ethanol solution vs in PBS): −6.02
- Fold change IGFBP2 [1]: −5.13
- Fold change SERPINA1 (in ethanol solution vs in PBS): 1.97
- Fold change SERPINA1 [1]: 2.12
- Fold change S100A8 (in ethanol solution vs in PBS): 2.11
- Fold change S100A8 [1]: 2.24
- Fold Change GBE1 (203282_at, in ethanol solution vs in PBS): −1.92
- Fold change LMAN1 (203294_s_at, in PBS vs untreated): 1.91
- Fold Change ABCA1 (203504_s_at, in ethanol solution vs in PBS): −1.90
- Fold change MET (in ethanol solution vs in PBS): 2.76
- Fold change MET [1]: 2.35
- Fold change DFNA5 (203695_s_at, in ethanol solution vs untreated): 1.92
- Fold change MMP9 (in ethanol solution vs in PBS): 2.67
- Fold change MMP9 [1]: 2.74
- Fold Change CA12 (203963_at, in ethanol solution vs in PBS): 2.02
- Fold Change CA12 (203963_at, in ethanol solution vs untreated): 1.91
- Fold Change CDC6 (203967_at, in ethanol solution vs in PBS): −2.03
- Fold change FCER1G (204232_at, in ethanol solution vs untreated): 1.94
- Fold change LOC645619 /// LOC731007 (in ethanol solution vs in PBS): −2.52
- Fold change LOC645619 /// LOC731007 [1]: −2.25
- Fold change AK3L1 (in ethanol solution vs in PBS): −3.93
- Fold change AK3L1 [1]: −3.14
- Fold change MMP1 (204475_at, in ethanol solution vs untreated): 2.32
- Fold Change CA12 (204508_s_at, in ethanol solution vs in PBS): 2.09
- Fold change ABCG1 (204567_s_at, in ethanol solution vs untreated): −2.12
- Fold change SLC7A7 (in ethanol solution vs in PBS): 2.05
- Fold change SLC7A7 [1]: 2.07
- Fold change EXO1 (204603_at, in ethanol solution vs untreated): −2.25
- Fold change SERPINB2 (in ethanol solution vs in PBS): 2.60
- Fold change SERPINB2 [1]: 3.14
- Fold change TTK (in ethanol solution vs in PBS): −2.04
- Fold change TTK [1]: −2.40
- Fold change DOCK4 (205003_at, in ethanol solution vs untreated): 2.33
- Fold change RAD51 (205024_s_at, in ethanol solution vs untreated): −2.09
- Fold change IL1B (205067_at, in ethanol solution vs untreated): 2.03
- Fold change GNG4 (in ethanol solution vs in PBS): 2.04
- Fold change GNG4 [1]: 2.23
- Fold change IL6 (205207_at, in ethanol solution vs untreated): 1.95
- Fold change probeset 205296_at (205296_at, in ethanol solution vs untreated): −2.02
- Fold Change WDR76 (205519_at, in ethanol solution vs in PBS): −2.42
- Fold change AQP9 (205568_at, in ethanol solution vs untreated): 2.27
- Fold change ZC3H11A (205787_x_at, in PBS vs untreated): 1.95
- Fold change MT3 (205970_at, in ethanol solution vs untreated): −2.05
- Fold change TNFAIP6 (206025_s_at, in ethanol solution vs untreated): 1.92
- Fold change SFRS6 (206108_s_at, in PBS vs untreated): 2.16
- Fold change ADAMDEC1 (in ethanol solution vs in PBS): 2.41
- Fold change ADAMDEC1 [1]: 2.87
- Fold change PLA2G7 (in ethanol solution vs in PBS): 2.12
- Fold change PLA2G7 [1]: 3.44
- Fold change SERPINB7 (206421_s_at, in ethanol solution vs untreated): 1.99
- Fold change IL24 (206569_at, in ethanol solution vs untreated): 1.97
- Fold change CSF3 (207442_at, in ethanol solution vs untreated): 2.14
- Fold Change P4HA1 (207543_s_at, in ethanol solution vs in PBS): −2.20
- Fold change HCK (in ethanol solution vs in PBS): 1.93
- Fold change HCK [1]: 2.14
- Fold change CASP2 (208050_s_at, in PBS vs untreated): 2.04
